5 compounds from article PMC10070635, “Targeting Enterococcus faecalis HMG-CoA reductase with a non-statin inhibitor” (Communications Biology, 2023) can be followed below.

As a reminder, the Ki is a dissociation constant, usually derived from enzyme kinetics or from competition with a known ligand. Usually inhibition stands for the relative decrease from the control value, in per cent. Read a low inhibition as a weak effect.

Test [1] concerns the target T1, Enterococcus faecalis HMG-CoA reductase (efHMGR) (Enterococcus faecalis, UniProt A0A4U3MLJ4).
T1 construct: gene EY666_03235; C-terminal domain (residues 381-803) of the mvaE gene product, N-terminal 6X-His tag
Kind of test: X-ray co-crystal structure ([…] Å). In kind it is binding.

Test [2] addresses T1, Enterococcus faecalis HMG-CoA reductase (efHMGR). Kind of test: X-ray co-crystal structure ([…] Å); mevalonate oxidation enzyme assay with Ki (IC50 […]). In kind it is biochemical.
Test [3] shares this target. Kind of test: mevalonate oxidation assay, NADPH absorbance at […] nm; […] inhibition at […]. In kind it is biochemical.
For test [4] the target is unchanged. Kind of test: X-ray crystal structure ([…] Å). In kind it is binding.

In the case of `CC(C)(COP(=O)(O)OP(=O)(O)OC[C@H]1O[C@@H](n2cnc3c(N)ncnc32)[C@H](O)[C@@H]1OP(=O)(O)O)[C@@H](O)C(=O)NCCC(=O)NCCSC(=O)C[C@@](C)(O)CC(=O)O` [HMG-CoA], the “X-ray co-crystal structure (2.27 Å)” value in test [1] is “HMG-CoA binds to the large domain of one monomer and NADP^+ to small domain of the other monomer”.
Turning to `NC(=O)c1ccc[n+]([C@@H]2O[C@H](COP(=O)(O)OP(=O)(O)OC[C@H]3O[C@@H](n4cnc5c(N)ncnc54)[C@H](OP(=O)(O)O)[C@@H]3O)[C@@H](O)[C@H]2O)c1` [NADP+], the “X-ray co-crystal structure (2.27 Å)” value in test [1] is “NADP^+ is present in all the active sites and HMG-CoA in only one”.
Turning to `CCCCc1ccc(NS(=O)(=O)c2ccc(O)c(C(=O)O)c2)cc1` [compound 315, 5-{[(4-butylphenyl)amino]sulfonyl}-2-hydroxybenzoic acid], the Ki in test [2] was found to be 2000 nM.
`CC[C@H](C)C(=O)O[C@H]1C[C@@H](C)C=C2C=C[C@H](C)[C@H](CC[C@@H]3C[C@@H](O)CC(=O)O3)[C@H]21` [lovastatin] registered an inhibition at 50 µM in test [3] of 32%.
As to `C[C@@](O)(CCO)CC(=O)O` [mevalonate], the “X-ray crystal structure (2.27 Å)” value in test [4] is reported as “Density consistent with mevalonate is also found in one of the active sites”.
